# Source: US20230295234A1, “ANTIMICROBIAL PEPTIDOMIMETICS” (SPEXIS AG, priority 2020, published 2023)
# Bridge positions count the residues as written; N and C are the ends. Square brackets hold non-standard residues; d marks the D form. Triazole bridges read from a SMILES are 1,4-linked. Peptide text beside a SMILES is read from it. * marks the point of attachment. Val(Nα-amidino) = CC(C)[C@H](NC(=N)N)C(=O)*; Pro(4R-NH2) = N[C@H]1CN[C@H](C(=O)O)C1; Aha = [N-]=[N+]=NCC[C@H](N)C(=O)O; Hyp = O=C(O)[C@@H]1C[C@@H](O)CN1; aThr = C[C@H](O)[C@H](N)C(=O)O; Pen = CC(C)(S)[C@H](N)C(=O)O; dDab = NCC[C@@H](N)C(=O)O; Pra = C#CC[C@H](N)C(=O)O; Dab = NCC[C@H](N)C(=O)O
# Assays:
# [1] = system: Escherichia coli MCR-1 Af 45; details: Mueller-Hinton broth II, 18-20 hours at 35° C.
# Procedure, shortened: (§1)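 Activity is measured against peptides serially diluted two-fold in water with 0.002% final Polysorbate 80. The cells are in cation-adjusted MHII broth at roughly 5×10^5 CFU/mL, prepared from a 0.5 McFarland suspension in 0.85% NaCl.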
# [2] = system: Escherichia coli ATCC 25922; details: ATCC 25922
# Procedure, shortened: as §1
# [3] = system: Klebsiella pneumoniae SSI3010; details: SSI3010
# Procedure, shortened: as §1
# [4] = system: human red blood cells (hRBC); test: Hemolysis of human red blood cells; type: cell-based; details: red cells of human, 1 h
# Procedure, shortened: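 PBS-washed human red blood cells (20% v/v) were incubated with peptide at 200 μg/mL for 1 h at 37 °C with shaking. Supernatant OD was read at 540 nm after 8-fold dilution. Hemolysis is expressed as percent of the water control.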
Structure (SMILES),Escherichia coli MCR-1 Af 45 MIC [1] [µg/mL],Escherichia coli ATCC 25922 MIC [2] [µg/mL],Klebsiella pneumoniae SSI3010 MIC [3] [µg/mL],Hemolysis at 0.2 g/L [4] [%]
"CC[C@H](C)[C@H](NC(=O)[C@@H]1C[C@@H](O)CN1C(=O)[C@@H](NC(=N)N)C(C)C)C(=O)N[C@H](C(=O)N[C@@H](Cc1ccc(O)cc1)C(=O)N[C@@H]1C(=O)N[C@@H](CC(N)=O)C(=O)N[C@@H](CCCNC(=N)N)C(=O)N[C@@H](CCN)C(=O)N[C@@H](CO)C(=O)N[C@H](CCN)C(=O)N[C@@H](CCCCN)C(=O)N[C@H](C(=O)N[C@@H](CCN)C(=O)N[C@@H](CCCNC(=N)N)C(=O)N[C@@H](Cc2ccc(O)cc2)C(=O)O)CSSC1(C)C)[C@@H](C)O [Example 196] (HELM PEPTIDE1{[CC(C)[C@H](NC(=N)N)C(=O)[*:2]].[Hyp].I.T.Y.[Pen].N.R.[Dab].S.[NCC[C@@H](N[*:1])C(=O)[*:2]].K.C.[Dab].R.Y}$PEPTIDE1,PEPTIDE1,6:R3-13:R3$$$V2.0)",0.0625,0.125,0.125,0
"CC[C@H](C)[C@H](NC(=O)[C@@H]1C[C@@H](O)CN1C(=O)[C@@H](NC(=N)N)C(C)C)C(=O)N[C@H](C(=O)N[C@@H](Cc1ccc(O)cc1)C(=O)N[C@@H]1C(=O)N[C@@H](CC(N)=O)C(=O)N[C@@H](CCCNC(=N)N)C(=O)N[C@@H](CCN)C(=O)N[C@@H](CO)C(=O)N[C@H](CCN)C(=O)N[C@@H](CCCCN)C(=O)N[C@H](C(=O)N[C@@H](CCN)C(=O)N[C@@H](CCN)C(=O)N[C@@H](Cc2ccc(O)cc2)C(=O)O)CSSC1(C)C)[C@@H](C)O [Example 197] (HELM PEPTIDE1{[CC(C)[C@H](NC(=N)N)C(=O)[*:2]].[Hyp].I.T.Y.[Pen].N.R.[Dab].S.[NCC[C@@H](N[*:1])C(=O)[*:2]].K.C.[Dab].[Dab].Y}$PEPTIDE1,PEPTIDE1,6:R3-13:R3$$$V2.0)",0.0625,0.0625,0.125,0
"CC[C@H](C)[C@H](NC(=O)[C@@H]1C[C@@H](O)CN1C(=O)[C@@H](NC(=N)N)C(C)C)C(=O)N[C@H](C(=O)N[C@@H](Cc1ccc(O)cc1)C(=O)N[C@@H]1C(=O)N[C@@H](CC(N)=O)C(=O)N[C@@H](CCCNC(=N)N)C(=O)N[C@@H](CCN)C(=O)N[C@@H](CO)C(=O)N[C@H](CCN)C(=O)N[C@@H](CCCCN)C(=O)N[C@H](C(=O)N[C@@H](CCN)C(=O)N[C@@H](CCCN)C(=O)N[C@@H](Cc2ccc(O)cc2)C(=O)O)CSSC1(C)C)[C@@H](C)O [Example 198] (HELM PEPTIDE1{[CC(C)[C@H](NC(=N)N)C(=O)[*:2]].[Hyp].I.T.Y.[Pen].N.R.[Dab].S.[NCC[C@@H](N[*:1])C(=O)[*:2]].K.C.[Dab].[Orn].Y}$PEPTIDE1,PEPTIDE1,6:R3-13:R3$$$V2.0)",0.0625,0.125,0.125,0
CC[C@H](C)[C@H](NC(=O)[C@@H]1C[C@@H](N)CN1C(=O)[C@@H](NC(=N)N)C(C)C)C(=O)N[C@H](C(=O)N[C@@H](Cc1ccc(O)cc1)C(=O)N[C@@H]1C(=O)N[C@@H](CC(N)=O)C(=O)N[C@@H](CCCNC(=N)N)C(=O)N[C@@H](CCN)C(=O)N[C@@H]([C@@H](C)O)C(=O)N[C@H](CCN)C(=O)N[C@@H](CCCCN)C(=O)N[C@H](C(=O)N[C@@H](Cc2ccc(O)cc2)C(=O)N[C@@H](CCCNC(=N)N)C(=O)N[C@@H](Cc2ccc(O)cc2)C(=O)O)CSSC1(C)C)[C@@H](C)O [Example 199] ({Val(Nα-amidino)}-[Pro(4R-NH2)]ITY[Pen]NR[Dab]T[dDab]KCYRY-OH; disulfide 5-12),0.125,0.25,0.25,0
CC[C@H](C)[C@H](NC(=O)[C@@H](NC(=O)[C@@H]1C[C@@H](N)CN1C(=O)[C@@H](NC(=N)N)C(C)C)[C@@H](C)CC)C(=O)N[C@@H](Cc1ccc(O)cc1)C(=O)N[C@@H]1C(=O)N[C@@H](CC(N)=O)C(=O)N[C@@H](CCCNC(=N)N)C(=O)N[C@@H](CCN)C(=O)N[C@@H]([C@@H](C)O)C(=O)N[C@H](CCN)C(=O)N[C@@H](CCCCN)C(=O)N[C@H](C(=O)N[C@@H](Cc2ccc(O)cc2)C(=O)N[C@@H](CCCNC(=N)N)C(=O)N[C@@H](Cc2ccc(O)cc2)C(=O)O)CSSC1(C)C [Example 200] ({Val(Nα-amidino)}-[Pro(4R-NH2)]IIY[Pen]NR[Dab]T[dDab]KCYRY-OH; disulfide 5-12),0.125,0.5,0.125,0
CC[C@H](C)[C@H](NC(=O)[C@@H]1C[C@@H](O)CN1C(=O)[C@@H](NC(=N)N)C(C)C)C(=O)N[C@H](C(=O)N[C@@H](Cc1ccc(O)cc1)C(=O)N[C@@H]1C(=O)N[C@@H](CC(N)=O)C(=O)N[C@@H](CCCNC(=N)N)C(=O)N[C@@H](CCN)C(=O)N[C@@H]([C@@H](C)O)C(=O)N[C@H](CCN)C(=O)N[C@@H](CCCCN)C(=O)N[C@H](C(=O)N[C@@H](Cc2ccc(O)cc2)C(=O)N[C@@H](CCCNC(=N)N)C(=O)N[C@@H](Cc2ccc(O)cc2)C(=O)O)CSSC1(C)C)[C@H](C)O [Example 201] ({Val(Nα-amidino)}-[Hyp]I[aThr]Y[Pen]NR[Dab]T[dDab]KCYRY-OH; disulfide 5-12),0.25,0.5,0.5,0
"CC[C@H](C)[C@H](NC(=O)[C@@H](NC(=O)[C@@H]1CCCN1C(=O)[C@@H](N=C(N(C)C)N(C)C)C(C)C)[C@@H](C)CC)C(=O)N[C@@H](Cc1ccc(O)cc1)C(=O)N[C@H]1CSSC[C@@H](C(=O)N[C@@H](CCN)C(=O)N[C@@H](CCCNC(=N)N)C(=O)N[C@@H](Cc2ccc(O)cc2)C(=O)O)NC(=O)[C@H](CCCCN)NC(=O)[C@@H](CCN)NC(=O)[C@H]([C@@H](C)O)NC(=O)[C@H](CCN)NC(=O)[C@H](CCCNC(=N)N)NC(=O)[C@H](CC(N)=O)NC1=O [Example 202] (HELM PEPTIDE1{[CC(C)[C@H](N=C(N(C)C)N(C)C)C(=O)[*:2]].P.I.I.Y.C.N.R.[Dab].T.[NCC[C@@H](N[*:1])C(=O)[*:2]].K.C.[Dab].R.Y}$PEPTIDE1,PEPTIDE1,6:R3-13:R3$$$V2.0)",0.0625,0.0625,0.25,0
"CC[C@H](C)[C@H](NC(=O)[C@@H]1C[C@@H](O)CN1C(=O)[C@@H](N=C(N(C)C)N(C)C)C(C)C)C(=O)N[C@H](C(=O)N[C@@H](Cc1ccc(O)cc1)C(=O)N[C@@H]1C(=O)N[C@@H](CC(N)=O)C(=O)N[C@@H](CCCNC(=N)N)C(=O)N[C@@H](CCN)C(=O)N[C@@H]([C@@H](C)O)C(=O)N[C@H](CCN)C(=O)N[C@@H](CCCCN)C(=O)N[C@H](C(=O)N[C@@H](CCN)C(=O)N[C@@H](CCCNC(=N)N)C(=O)N[C@@H](Cc2ccc(O)cc2)C(=O)O)CSSC1(C)C)[C@@H](C)O [Example 203] (HELM PEPTIDE1{[CC(C)[C@H](N=C(N(C)C)N(C)C)C(=O)[*:2]].[Hyp].I.T.Y.[Pen].N.R.[Dab].T.[NCC[C@@H](N[*:1])C(=O)[*:2]].K.C.[Dab].R.Y}$PEPTIDE1,PEPTIDE1,6:R3-13:R3$$$V2.0)",0.125,0.25,0.5,0
CC[C@H](C)[C@H](NC(=O)[C@@H](NC(=O)[C@@H]1C[C@@H](O)CN1C(=O)[C@@H](N)C(C)C)[C@@H](C)CC)C(=O)N[C@@H](Cc1ccc(O)cc1)C(=O)N[C@H]1Cc2cn(nn2)CC[C@@H](C(=O)N[C@@H](CCN)C(=O)N[C@@H](CCCNC(=N)N)C(=O)N[C@@H](Cc2ccc(O)cc2)C(=O)O)NC(=O)[C@H](CCCCN)NC(=O)[C@@H](CCN)NC(=O)[C@H]([C@@H](C)O)NC(=O)[C@H](CCN)NC(=O)[C@H](CCCNC(=N)N)NC(=O)[C@H](CC(N)=O)NC1=O [Example 204] (H-V[Hyp]IIY[Pra]NR[Dab]T[dDab]K[Aha][Dab]RY-OH; triazole 6-13),0.25,0.25,2,0
"CC[C@H](C)[C@H](NC(=O)[C@@H](NC(=O)[C@@H]1C[C@@H](O)CN1C(=O)[C@@H](N)C(C)C)[C@@H](C)CC)C(=O)N[C@@H](Cc1ccc(O)cc1)C(=O)N[C@H]1CC(=O)NCC[C@@H](C(=O)N[C@@H](CCN)C(=O)N[C@@H](CCCNC(=N)N)C(=O)N[C@@H](Cc2ccc(O)cc2)C(=O)O)NC(=O)[C@H](CCCCN)NC(=O)[C@@H](CCN)NC(=O)[C@H]([C@@H](C)O)NC(=O)[C@H](CCN)NC(=O)[C@H](CCCNC(=N)N)NC(=O)[C@H](CC(N)=O)NC1=O [Example 205] (HELM PEPTIDE1{V.[Hyp].I.I.Y.D.N.R.[Dab].T.[NCC[C@@H](N[*:1])C(=O)[*:2]].K.[Dab].[Dab].R.Y}$PEPTIDE1,PEPTIDE1,6:R3-13:R3$$$V2.0)",0.125,0.125,0.25,0
